Source: patent US12617777B2, “GPR84 antagonists and uses thereof” (Liminal BioSciences Limited, priority 2021, dated 2026)
pIC50: −log10 of the molar value.

Target: T1, human GPR84 receptor (Homo sapiens, UniProt Q9NQS5)
T1 construct: host or cells: HEK293, transient transfection
Experiment: Gαi biosensor BRET assay in HEK293 cells (antagonism of ZQ-16)
Assay type: cell-based
Settings: for inhibition at 10 µM: HEK293, single concentration 10 μM (designated F); for inhibition at 25 µM: HEK293, single concentration 25 μM (designated I); for pIC50: HEK293 cells, antagonism of 200 nmol/L ZQ-16; for inhibition at 2 µM: HEK293, single concentration 2 μM (designated A)
Method in brief: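 Antagonist mode: test compound 5 min at 37° C, followed by ZQ-16 agonist (200 nmol/L, 5 min, room temperature), in HEK293 cells transfected with GPR84 plus Rluc8-tagged Gαi2, GFP10-Gγ2 and Gβ1. Readout as GFP10/Rluc8 emission ratio after 5 μmol/L coelenterazine 400A, net of Rluc8-only and vehicle signal.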

T1 sequence (Q9NQS5 whole entry): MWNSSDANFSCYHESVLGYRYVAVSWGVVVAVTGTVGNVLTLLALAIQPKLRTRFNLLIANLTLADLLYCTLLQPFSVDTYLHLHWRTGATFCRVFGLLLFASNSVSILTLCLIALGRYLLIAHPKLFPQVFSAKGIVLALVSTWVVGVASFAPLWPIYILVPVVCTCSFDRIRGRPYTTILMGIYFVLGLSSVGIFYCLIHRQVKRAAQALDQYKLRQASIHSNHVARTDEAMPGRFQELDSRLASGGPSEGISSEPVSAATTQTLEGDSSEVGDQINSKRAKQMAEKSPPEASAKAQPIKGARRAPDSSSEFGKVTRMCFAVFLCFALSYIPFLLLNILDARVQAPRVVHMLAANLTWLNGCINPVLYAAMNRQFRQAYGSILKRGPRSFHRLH

SMILES	inhibition at 10 µM [%]	also measured
COC1CN(c2ccc(-c3cn(CC4CCCCO4)nn3)c(C)c2)C1 (stereo not drawn) [Compound I-507]	25 to 50	–
Cc1ccc(-c2cccc(-c3cn(C[C@H]4CCCCO4)nn3)c2)cn1 [Compound I-33]	–	inhibition at 25 µM: 25 to 50%
CC(C)(C)OCCn1cc(-c2ccc(C#CC3CC3)cc2)nn1 [Compound I-97]	≤ 25	–
C(#CC1CC1)c1ccc(-c2ccn(CC3CCCCO3)n2)cc1 (stereo not drawn) [Compound I-321]	–	inhibition at 25 µM: 25 to 50%
Cn1ccc2c(C#CC3CC3)ccc(-c3cn(CC4CCCCO4)nn3)c21 (stereo not drawn) [Compound I-230]	≤ 25	–
Cc1cc(C#CC2CC2)ccc1-c1cn(CC2CN(C)C(=O)O2)nn1 (stereo not drawn) [Compound I-493]	≤ 25	–
Cc1cc(C#CC2CC2)ccc1-n1nc(OC[C@H]2COCCO2)oc1=O [Compound I-13]	25 to 50	–
c1ccc(COc2ccc3c(c2)CCc2cn(CC4CCCCO4)nc2-3)cc1 (single isomer, unassigned) [Compound I-330]	≤ 25	pIC50: 6.00 to 6.52
Cc1cc(C#CCNc2ccccc2)ccc1-c1cn(CCOc2cccnc2)nn1 [Compound I-136]	≤ 25	–
C[C@@H]1Cc2oc(C(=O)NC[C@@H]3COCCO3)c(C(F)(F)F)c2-c2nn(CC3CCN(C(=O)C4CC4)CC3)cc21 [Compound I-787]	≤ 25	pIC50: 6.00 to 6.52
Cc1cc(N2CCC(N(C)Cc3ccccc3)CC2)ccc1-c1cn(CC2CCCCO2)nn1 (stereo not drawn) [Compound I-141]	≤ 25	–
CN(C)c1cc(N2CC3(CCOCC3)C2)ccc1-c1cn(CC2OCC(C)(C)CO2)nn1 [Compound I-854]	–	inhibition at 2 µM: > 75%
CCc1ccc(C#CC2CC2)cc1Cc1cn(CC2CCCCO2)nn1 (stereo not drawn) [Compound I-475]	–	inhibition at 2 µM: 25 to 50%
Cc1cc(N2CCC3(CC2)CN(C)C3)ccc1-c1cn(CC2CCCCO2)nn1 (stereo not drawn) [Compound I-172]	≤ 25	–
Cc1cc(N2CCC[C@H](N(C)Cc3ccccc3)C2)ccc1-c1cn(C[C@H]2CCCCO2)nn1 (stereo in doubt) [Compound I-240]	> 75	–
C(#Cc1ccc(-c2cn(CC3CCCCO3)nn2)cc1)CC1CC1 (stereo not drawn) [Compound I-44]	≤ 25	–
CC(=O)c1cc(C#CC2CC2)ccc1-c1cn(CC2CCCCO2)nn1 (stereo not drawn) [Compound I-124]	25 to 50	–
Cc1cc(C#CC2CC2)ccc1-c1cn(CC2OCc3ccccc32)nn1 (stereo not drawn) [Compound I-100]	≤ 25	–
CC1(C)CCC(Cn2cc(-c3ncc(C#CC4CC4)cc3OC3CC3)nn2)OC1 (stereo not drawn) [Compound I-739]	–	inhibition at 2 µM: > 75%; pIC50: ≥ 6.52
Cc1cc(C#CC2CC2)ccc1-c1cn(CC2CCC(=O)N2)nn1 (stereo not drawn) [Compound I-542]	–	inhibition at 2 µM: ≤ 25%
Cc1cc(C#CC2CC2)ccc1-c1cn(CC2COc3ccccc3O2)nn1 (stereo not drawn) [Compound I-101]	25 to 50	–
Cc1cc(N2CC(C)(CO)C2)c(F)cc1-c1cn(C[C@H]2CCCCO2)nn1 [Compound I-804]	–	inhibition at 1 µM (HEK293, single concentration 1 μM (designated A°)): 25 to 50%; pIC50: 6.00 to 6.52
CC(C)(O)c1cc(C#CC2CC2)ccc1-c1cn(CC2CCCCO2)nn1 (stereo not drawn) [Compound I-229]	≤ 25	–
Cc1cc(C#CC2CC2)ccc1-c1cn(CCOCC2COCCO2)nn1 (stereo not drawn) [Compound I-92]	–	inhibition at 25 µM: 25 to 50%
CC1(C)COC(Cn2cc(-c3ncc(C#CCN4CC(C)(C)C4)cc3OCC(F)(F)F)nn2)OC1 [Compound I-722]	–	inhibition at 2 µM: > 75%; pIC50: ≥ 6.52

SMILES	inhibition at 10 µM [%]	also measured
Cc1cc(C#CCNc2ccccc2)ccc1-c1cn(Cc2ccccn2)nn1 [Compound I-137]	≤ 25	–
Cc1ccc(-c2ccc(-c3cn(C[C@H]4CCCCO4)nn3)nc2)cn1 [Compound I-32]	≤ 25	–
Cc1cc(N2CCCC2)ccc1-c1cn(CC2CCCCO2)nn1 (stereo not drawn) [Compound I-472]	25 to 50	–
C(#CC1CC1)c1ccc(-c2cn(CCOCC3COCCO3)nn2)cc1 (stereo not drawn) [Compound I-93]	≤ 25	–
Cc1cc(C#CCN2CCCN(C)CC2)ccc1-c1cn(CC2CCCCO2)nn1 (stereo not drawn) [Compound I-159]	≤ 25	–
Cc1cc(C#CC2CC2)ccc1-c1nnn(C[C@H]2CCCCO2)c1C [Compound I-45]	–	inhibition at 12.5 µM (HEK293, single concentration 12.5 μM (designated G)): 25 to 50%
Cc1cc(C#CC2CC2)ccc1-c1cn(Cc2cncn2C)nn1 [Compound I-528]	≤ 25	–
Cc1cc(N2CCN(Cc3ccccn3)CC2)ccc1-c1cn(CC2OCCCO2)nn1 [Compound I-532]	25 to 50	–
Cc1c(-c2ccc(OCc3ccccn3)cc2)nnn1CC1CCCCO1 (stereo not drawn) [Compound I-50]	–	inhibition at 25 µM: 25 to 50%
COC(c1cccc(C#CC2CC2)c1)c1cn(CC2CCCCO2)nn1 (stereo not drawn) [Compound I-490]	> 75	pIC50: 6.00 to 6.52
COC1CCCN(c2ccc(-c3cn(CC4CCCCO4)nn3)c(C)c2)C1 (stereo not drawn) [Compound I-428]	25 to 50	–
Cc1cc(N2CC(C)(C#N)C2)ccc1-c1cn(CC2CCCCO2)nn1 (stereo not drawn) [Compound I-495]	25 to 50	–
Cc1cc(N2CCN(Cc3ncccn3)CC2)ccc1-c1cn(CC2CCCCO2)nn1 (stereo not drawn) [Compound I-547]	25 to 50	–
Cc1cc(C#CC2CC2)ccc1-c1cn(CC23CCC(CC2)CO3)nn1 [Compound I-509]	–	inhibition at 2 µM: ≤ 25%
Cc1ccc(C#CC2CC2)cc1C1(c2cn(CC3OCC(C)(C)CO3)nn2)OCCO1 [Compound I-721]	–	inhibition at 2 µM: > 75%; pIC50: 6.00 to 6.52
Cc1cc(C#CC2CC2)ccc1-c1nnc(CC2CCCCO2)o1 (stereo not drawn) [Compound I-342, 2-(4-(cyclopropylethynyl)-2-methylphenyl)-5-((tetrahydro-2H-pyran-2-yl)methyl)-1,3,4-oxadiazole]	≤ 25	–
CC(C)Oc1cc(N2CC(C)(CO)C2)ccc1-c1cn(CC2OCC(C)(C)CO2)nn1 [Compound I-678]	–	inhibition at 2 µM: > 75%; pIC50: 6.00 to 6.52
FC(F)(F)Cc1cc(N2CCN(Cc3ccccn3)CC2)ccc1-c1cn(C[C@H]2CCCCO2)nn1 [Compound I-746]	–	inhibition at 2 µM: > 75%; pIC50: ≥ 6.52
Cc1cc(N2CCN(Cc3ccccn3)CC2)ccc1-c1cncn1C[C@H]1CCCCO1 [Compound I-672]	≤ 25	–
C(#CC1CC1)c1ccc(-c2cn(CC3CCCCO3)nn2)c(N2CCC2)c1 (stereo not drawn) [Compound I-199]	≤ 25	–
C(#Cc1ccc(-c2cn(CC3CCCCO3)nn2)cc1)CN1CCCCC1 (stereo not drawn) [Compound I-48]	–	inhibition at 15 µM (HEK293, single concentration 15 μM (designated H)): ≤ 25%
Cc1cc(N2CC3(CCCN3)C2)ccc1-c1cn(CC2CCCCO2)nn1 (stereo not drawn) [Compound I-147]	≤ 25	–
COC(=O)C1(C)CN(c2ccc(-c3cn(CC4CCCCO4)nn3)c(C)c2)C1 (stereo not drawn) [Compound I-409]	25 to 50	–
COC(c1cn(CC2Oc3ccccc3O2)nn1)c1cc(C#CC2CC2)ccc1C (stereo not drawn) [Compound I-605]	> 75	pIC50: 6.00 to 6.52

Further lines, with some results ahead:

inhibition at 10 µM [%]	SMILES	also measured
> 75	CC1(CO)CN(c2cnc(-c3cn(CC4OCC5(CCC5)O4)nn3)c(OCC(F)(F)F)c2)C1 (stereo not drawn) [Compound I-816]	–
≤ 25	CC(=O)N1CCOC(Cn2cc(-c3ccc(C#CC4CC4)cc3C)nn2)C1 (stereo not drawn) [Compound I-96]	–
> 75	CCc1cc(N2CC(C)(CO)C2)cnc1-c1cn(CC2CC(C)(C)CO2)nn1 (stereo not drawn) [Compound I-500]	pIC50: 5.52 to 6.00
50 to 75	Cc1cc(C#CC2CC2)ccc1-c1cn(C[C@H]2COC(C)(C)O2)nn1 [Compound I-222]	–
25 to 50	CC(=O)N(C)C(C)(C)COc1ccc(-c2cn(CC3CCCCO3)nn2)c(C)c1 (stereo not drawn) [Compound I-290]	–
≤ 25	CC(C)OCC#Cc1cnc(-c2cn(CC3OCC(C)(C)CO3)nn2)c(OC(C)C)c1 [Compound I-846]	–
50 to 75	Cc1ccc(Cl)cc1N(C)c1cn(CC2OCC3(CC3)CO2)nn1 [Compound I-844]	–
> 75	CN(c1cn(CC2OCC(C)(C)CO2)nn1)c1cc(C#N)ccc1Cl [Compound I-803]	–
50 to 75	Cc1cc(N2CCN(C(C)c3ccccn3)CC2)ccc1-c1cn(CC2OCC(C)(C)CO2)cn1 (stereo not drawn) [Compound I-828]	pIC50: 6.00 to 6.52
> 75	Cc1cc(N2CC(C)(C)C2)cnc1-c1cn(CC2OCC(C)(C)CO2)nn1 [Compound I-584]	–
≤ 25	Cc1ccc(C#CCNCc2ccccc2)cc1-c1cn(CC2CCCCO2)nn1 (stereo not drawn) [Compound I-201]	–
> 75	CC(C)Oc1cc(N2CC(C)(CO)C2)cnc1-c1cn(CC2CC(C)(C)CO2)nn1 (stereo not drawn) [Compound I-501]	pIC50: 5.52 to 6.00
> 75	Cc1cc(N2CCC(Cc3ccccn3)CC2)cnc1-c1cn(CC2CCCCO2)nn1 (stereo not drawn) [Compound I-503]	–
> 75	Cc1cc(N2CCN(Cc3ccccn3)CC2)ccc1-c1cn(CC2OCC(C)(C)CO2)cn1 [Compound I-682]	pIC50: 6.00 to 6.52
> 75	CN(C)c1cc(N2CC(C)(CO)C2)ccc1-c1cn(CC2OCC(F)(F)CO2)nn1 [Compound I-729]	–
> 75	CC1(C)COC(Cn2cc(-c3ncc(C#CCNC4CC4)cc3OC3CC3)nn2)OC1 [Compound I-856]	–
≤ 25	CC1(C)COC(Cn2cncc2-c2ncc(C#CC3CC3)cc2OC2CC2)OC1 [Compound I-832]	–
> 75	Cc1cc(N2CC3(C2)CN(c2ccccn2)C3)ccc1-c1cn(CC2OCC(C)(C)CO2)nn1 [Compound I-663]	pIC50: < 5.52
> 75	Cc1cc(C#CC2CC2)ccc1-c1cn(CC2CCC(C)(C)O2)nn1 (stereo not drawn) [Compound I-164]	pIC50: 5.52 to 6.00
> 75	Cc1cc(C#CC2CC(F)(F)C2)cnc1-c1cn(CC2CCCCO2)nn1 (stereo not drawn) [Compound I-648]	–
25 to 50	Cc1cc(C#CC2CC2)cnc1-c1cn(CC2CCC(C)(C)O2)nn1 (stereo not drawn) [Compound I-252]	–
≤ 25	COCCn1cc(-c2ccc(C#CC3CC3)cc2C)nn1 [Compound I-104]	–
